How the values were obtained:
NaPi2b = assay: Competition with phosphate: Pi uptake assay repeated at 2.1 vs 0.1 mM phosphate; assay type: cell-based; conditions: potency at 2.1 vs 0.1 mM phosphate
From the text: In certain preferred embodiments, the phosphate transport inhibitors of the present invention are not competitive inhibitors with respect to phosphate of Na/phosphate co-transport. In certain other preferred embodiments, the phosphate transport inhibitors of the invention are non-competitive inhibitors. Non-competitive inhibitors maintain their degree of inhibition irrespective of the local phosphate concentration. This feature is an important aspect in providing an efficient blockade of intestinal transport in postprandial state, where the local concentration of dietary phosphate can attain concentration as high as 10 mM. It is believed that competitive inhibitors are too sensitive to local phosphate concentration and unable to block phosphate uptake following a high phosphorus meal. Various methods are available for determining whether a phosphate transport inhibitor is non-competitive or competitive. For example, a phosphate uptake assay can be performed and the IC50 values for a compound at different phosphate concentrations can be determined (e.g., “Enzyme kinetics”, I. Segel, 1975, John-Wiley & Sons, p. 123). IC50 values for non-competitive inhibitors will remain the same or similar with respect to the phosphate concentration, whereas IC50 values for competitive inhibitors will increase (i.e. lose potency) as phosphate concentration increases. […]

Sprague-Dawley rats = assay: In vivo bolus phosphorus challenge (serum phosphate elevation); conditions: rat; oral; drug dose 30; phosphate bolus 15 min after compound; serum 30 min post bolus
Procedure: By pretreating animals with a low phosphorus diet followed by the subsequent dosing of a phosphorus bolus, serum phosphorus levels were monitored after 30 minutes as a surrogate for intestinal phosphorus absorption. […] The in vivo bolus phosphorus challenge model used here mimics this model in rats.
Male, 7-week-old Sprague-Dawley rats (Charles-River laboratories international, Hollister, Calif.) were allowed to acclimatize for a minimum of 3 days before switching to a synthetic low-phosphorus diet (TD.85010, Harlan Teklad, Madison, Wis.) which contains 0.1% phosphorus and 0.6% calcium. At day 5, testing compounds or vehicle alone (as indicated) were orally administered at the indicated dose in a volume of 5 ml/kg, followed by a bolus gavage of monobasic sodium phosphate (1 mmol in 1 ml) 15 min after compound dosing. Serum was collected via retroorbital bleeding 30 min post phosphate bolus and phosphate levels were determined utilizing an ACE ALERA blood chemistry analyzer (Alfa Wassermann Diagnostic Technologies, West Caldwell, N.J.).
The extent of inhibition by test compounds on the elevation of serum phosphate levels in response to the bolus of phosphorus is shown in Table 12 (data are expressed as % Inhibition, with 6-10 animals per data point). The differences between groups were evaluated by one-way analysis of variance with Dunnett's post hoc tests.

[1] = Fecal recovery of orally administered compounds; assay type: in vivo; conditions: rat; oral gavage; feces collected until 48 hr after dosing
From the text: In this respect, it is understood that a recovered compound can include the sum of the parent compound and its metabolites derived from the parent compound, e.g., by means of hydrolysis, conjugation, reduction, oxidation, N-alkylation, glucuronidation, acetylation, methylation, sulfation, phosphorylation, or any other modification that adds atoms to or removes atoms from the parent compound, wherein the metabolites are generated via the action of any enzyme or exposure to any physiological environment including, pH, temperature, pressure, or interactions with foodstuffs as they exist in the digestive milieu. Measurement of fecal recovery of compound and metabolites can be carried out using standard methodology. For example, compound can be administered orally at a suitable dose (e.g., 10 mg/kg) and feces are then collected at predetermined times after dosing (e.g., 24 hours, 48 hours, 72 hours). Parent compound and metabolites can be extracted with organic solvent and analyzed quantitatively using mass spectrometry. A mass balance analysis of the parent compound and metabolites (including, parent=M, metabolite 1 [M+16], and metabolite 2 [M+32]) can be used to determine the percent recovery in the feces.
Quantitative determination of test compound level in feces after oral gavage was performed using the same set of animals used to determine test compound concentration in plasma (Example 352). The animals were kept in metabolic cages and feces were collected from the time of dosing until 48 hr after dosing. Upon collection, feces were dried by lyophilization and ground to a visually homogenous powder. Duplicate samples of ground feces from each individual animal were weighed out and extracted using organic solvent. Extracted samples were then diluted into mobile phase and test compound levels were quantitatively determined by LC-MS/MS analysis as described in Example 352 except that the standard curve was prepared in a feces matrix. Extraction conditions were not optimized for individual compounds, and thus may represent a minimal level of recovery.

[2] = Stability of compounds in simulated gastric fluid (SGF); assay type: in vitro ADME; conditions: simulated gastric fluid (USP, 3 mg/mL pepsin), 1-20 μM, incubation time 6 hr, relative to t=0
Procedure: (§1) Test compounds were incubated at 1-20 μM in simulated gastric fluid (SGF; standard USP solution with 3 mg/mL pepsin) or simulated intestinal fluid (SIF; standard USP solution with 3 mg/mL pancreatin) for 3 hr or 6 hr. HPLC-UV or HPLC-MS were used to determine test compound levels using peak area %. Results (Table 14) were reported as the percentage of test compound remaining after incubation in a given condition relative to test compound present at t=0 in the same condition.

[3] = Stability of compounds in simulated intestinal fluid (SIF); assay type: in vitro ADME; conditions: simulated intestinal fluid (USP, 3 mg/mL pancreatin), 1-20 μM, incubation time 6 hr, relative to t=0
Procedure: as §1

[4] = tested on: 5/6 nephrectomy (5/6Nx) rat model of CKD; assay: In vivo evaluation in CKD rats (5/6 nephrectomy, 0.9% P diet, calcitriol); conditions: study 1, drug in chow, 2 weeks
Procedure: To assess the ability of selected example compounds to impact the progression of chronic kidney disease (CKD), 5/6 nephrectomy (5/6Nx) rat model of CKD was used. […] 5/6 Nx rats were obtained from Charles River Labs (CRL, Hollister, Calif.). Upon arrival, the surgeries and extent of kidney damage in the animals were assessed by measuring serum creatinine, P, Ca, and BUN. Based on this analysis, rats with inconsistent kidney function were removed from the study and the remainder of the cohort was divided in to evenly stratified test groups. The remaining animals were then placed on the same synthetic diet used in the drug-in-chow studies (Example 350), except the P levels were adjusted to 0.9% P. Drugs are blended into this chow to achieve the required dosing rate. At this time, rats were also started on an activated Vitamin D regimen in which they were injected intraperitoneally with calcitriol at 80 ng/kg three times a week. Once a week, serum was collected via retro orbital bleeding for analysis of serum P and creatinine utilizing an ACE ALERA blood chemistry analyzer. […] Unless otherwise indicated, the data shown is from the serum collected at 2 weeks after initiation of the treatment regimen. In addition, for study #3, during the third week of the study, the animals were placed in metabolic cages for two days, and urine collected for the final 24 hours.

SMILES | Competitive with respect to Pi? (NaPi2b) | % Inhibition of Serum P elevation (Sprague-Dawley rats) | % recovered in feces [1] | % remaining, SGF [2] | % remaining, SIF [3] | Ser CRE [4] | Ser P [4] | FGF23, pg/mL ([4]; serum)
O=C(O)CCSCc1cccc(C(=O)Nc2ccc(N3CCCCC3)cc2-c2cc(C(=O)NCc3cccc(C(F)(F)F)c3)ccn2)c1 [Example 1.1, 3-(3-((2-(4-((3-(trifluoromethyl)benzyl)carbamoyl)pyridin-2-yl)-4-(piperidin-1-yl)phenyl)carbamoyl)-benzylthio)propanoic acid] | No | 20-30% | 20-80% | – | – | – | – | –
CCN(CC)c1ccc(NC(=O)c2cccc(C(=O)N(C)CCN3CCOCC3)c2)c(-c2cc(C(=O)NCc3cccc(C(F)(F)F)c3)ccn2)c1 [Example 25, N1-(4-(Diethylamino)-2-(4-((3-(trifluoromethyl)benzyl)carbamoyl)pyridin-2-yl)phenyl)-N3-methyl-N3-(2-morpholinoethyl)isophthalamide] | – | – | 20-80% | >80% | 80% | 1.3 mg/dL | 10 mg/dL | ~10,000 pg/mL
